Test results as given in ChEMBL document CHEMBL1201862, “PubChem BioAssay data set” (2004).
The source made the active and inactive calls.

Tests used:
[1] = target: T1, Caspase-6 (Homo sapiens, UniProt P55212); test: inhibition of CASP6 peptide cleavage – biochemical, VEID-R110 fluorescence, cherry-pick, dose response (AID 720632)
T1 sequence (P55212 whole entry): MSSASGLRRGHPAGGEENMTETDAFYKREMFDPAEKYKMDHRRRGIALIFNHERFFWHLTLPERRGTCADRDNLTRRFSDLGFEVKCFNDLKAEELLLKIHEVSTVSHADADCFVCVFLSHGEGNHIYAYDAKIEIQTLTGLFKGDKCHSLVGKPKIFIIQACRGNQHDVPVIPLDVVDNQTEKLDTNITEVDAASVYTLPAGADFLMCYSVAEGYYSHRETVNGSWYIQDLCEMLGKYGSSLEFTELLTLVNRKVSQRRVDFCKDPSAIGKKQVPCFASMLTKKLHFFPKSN

[2] = A cytotoxicity screen of small molecule inhibitors of the PhoP region in Salmonella typhi identified in the primary screen. [Related pubchem assays: 1850, 1864, 1985 ]; format: functional
[3] = target: Cytochrome P450 2C9 (Homo sapiens, UniProt P11712)
Sequence of Cytochrome P450 2C9 (P11712 whole entry): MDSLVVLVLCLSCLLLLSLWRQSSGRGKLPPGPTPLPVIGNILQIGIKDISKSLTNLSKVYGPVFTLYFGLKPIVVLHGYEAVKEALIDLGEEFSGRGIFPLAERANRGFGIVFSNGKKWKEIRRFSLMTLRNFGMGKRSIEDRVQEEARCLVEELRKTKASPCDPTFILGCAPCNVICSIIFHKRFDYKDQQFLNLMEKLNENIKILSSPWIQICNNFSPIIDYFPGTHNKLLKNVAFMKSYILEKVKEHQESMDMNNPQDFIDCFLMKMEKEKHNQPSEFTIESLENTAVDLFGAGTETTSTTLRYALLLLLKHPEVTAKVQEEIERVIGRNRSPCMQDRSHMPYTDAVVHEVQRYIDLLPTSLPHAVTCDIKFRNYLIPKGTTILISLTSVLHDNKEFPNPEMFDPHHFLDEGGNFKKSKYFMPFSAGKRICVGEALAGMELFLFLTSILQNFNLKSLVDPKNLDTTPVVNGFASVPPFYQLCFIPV

[4] = tested on: H9c2; test: cells; format: functional, cell-based; conditions: Rattus norvegicus, H9c2, Myocardium;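 further: confirmatory concentration-response retest of ultra-high-throughput screening hits for modulation of myocardial damage; cell death induced by hydrogen peroxide oxidative stress; compound pretreatment for 60 min then peroxide exposure for 2 h; potency is for protecting the cells against peroxide damage rather than for killing them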
[5] = target: Large T antigen (Simian virus 40, UniProt P03070); format: functional, Betapolyomavirus macacae;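 further: Confirmatory-stage PubChem screen for compounds that inhibit SV40 T antigen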
Sequence of Large T antigen (P03070 whole entry): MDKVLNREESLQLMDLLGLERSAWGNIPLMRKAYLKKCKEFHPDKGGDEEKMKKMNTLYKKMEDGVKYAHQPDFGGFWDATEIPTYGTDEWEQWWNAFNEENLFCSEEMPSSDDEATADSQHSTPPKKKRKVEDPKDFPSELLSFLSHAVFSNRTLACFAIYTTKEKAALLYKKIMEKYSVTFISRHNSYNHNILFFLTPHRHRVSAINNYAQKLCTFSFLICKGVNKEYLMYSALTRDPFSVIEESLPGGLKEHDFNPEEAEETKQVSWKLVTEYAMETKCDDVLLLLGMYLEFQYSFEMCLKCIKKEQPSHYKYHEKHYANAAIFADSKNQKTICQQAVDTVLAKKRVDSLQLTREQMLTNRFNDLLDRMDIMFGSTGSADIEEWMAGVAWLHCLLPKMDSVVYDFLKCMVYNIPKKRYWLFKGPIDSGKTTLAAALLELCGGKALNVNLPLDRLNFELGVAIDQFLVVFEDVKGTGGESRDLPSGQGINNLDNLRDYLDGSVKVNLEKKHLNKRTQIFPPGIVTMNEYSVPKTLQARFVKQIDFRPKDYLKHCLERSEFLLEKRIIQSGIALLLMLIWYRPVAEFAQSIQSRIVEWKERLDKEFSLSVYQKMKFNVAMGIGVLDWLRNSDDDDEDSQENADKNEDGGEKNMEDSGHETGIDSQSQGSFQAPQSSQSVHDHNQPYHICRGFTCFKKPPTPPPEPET

[6] = target: T2, Replicative DNA helicase DnaB (Mycobacterium tuberculosis, UniProt P9WMR3); test: DnaB intein splicing inhibitors, dose response, biochemical, cell-free fluorescence (AID 449749); format: functional
T2 sequence (P9WMR3 whole entry): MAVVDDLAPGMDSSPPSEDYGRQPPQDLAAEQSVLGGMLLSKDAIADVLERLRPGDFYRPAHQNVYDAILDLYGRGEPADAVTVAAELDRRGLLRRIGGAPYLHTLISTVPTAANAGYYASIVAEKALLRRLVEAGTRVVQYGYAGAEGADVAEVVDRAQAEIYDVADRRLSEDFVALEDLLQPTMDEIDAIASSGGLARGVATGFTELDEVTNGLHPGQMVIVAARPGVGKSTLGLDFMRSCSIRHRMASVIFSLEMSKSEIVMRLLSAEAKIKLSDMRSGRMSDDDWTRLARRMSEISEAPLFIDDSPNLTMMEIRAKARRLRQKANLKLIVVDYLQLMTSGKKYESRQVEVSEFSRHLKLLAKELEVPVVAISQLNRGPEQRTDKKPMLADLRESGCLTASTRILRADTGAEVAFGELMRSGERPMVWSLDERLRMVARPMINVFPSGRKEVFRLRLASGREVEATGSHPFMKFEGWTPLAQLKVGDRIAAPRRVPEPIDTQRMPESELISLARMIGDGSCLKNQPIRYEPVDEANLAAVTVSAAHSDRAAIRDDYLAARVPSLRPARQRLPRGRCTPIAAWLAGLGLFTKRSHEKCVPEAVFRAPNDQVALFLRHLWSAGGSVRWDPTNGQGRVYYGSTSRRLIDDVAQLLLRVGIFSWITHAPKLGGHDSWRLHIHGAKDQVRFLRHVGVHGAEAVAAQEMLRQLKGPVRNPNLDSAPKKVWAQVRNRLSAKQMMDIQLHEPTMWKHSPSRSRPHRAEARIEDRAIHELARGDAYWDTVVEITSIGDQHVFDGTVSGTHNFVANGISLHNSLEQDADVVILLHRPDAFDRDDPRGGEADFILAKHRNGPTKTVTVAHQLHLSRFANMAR

[7] = target: T3, Protein RecA (Mycobacterium tuberculosis, UniProt P9WHJ3); test: Fluorescence Cell-Free Homogeneous Dose Retest to Identify Inhibitors of RecA-Intein Splicing Activity. [Related pubchem assays (depositor defined):AID2097, AID2223, AID489010, AID492950]; format: functional
T3 sequence (P9WHJ3 whole entry): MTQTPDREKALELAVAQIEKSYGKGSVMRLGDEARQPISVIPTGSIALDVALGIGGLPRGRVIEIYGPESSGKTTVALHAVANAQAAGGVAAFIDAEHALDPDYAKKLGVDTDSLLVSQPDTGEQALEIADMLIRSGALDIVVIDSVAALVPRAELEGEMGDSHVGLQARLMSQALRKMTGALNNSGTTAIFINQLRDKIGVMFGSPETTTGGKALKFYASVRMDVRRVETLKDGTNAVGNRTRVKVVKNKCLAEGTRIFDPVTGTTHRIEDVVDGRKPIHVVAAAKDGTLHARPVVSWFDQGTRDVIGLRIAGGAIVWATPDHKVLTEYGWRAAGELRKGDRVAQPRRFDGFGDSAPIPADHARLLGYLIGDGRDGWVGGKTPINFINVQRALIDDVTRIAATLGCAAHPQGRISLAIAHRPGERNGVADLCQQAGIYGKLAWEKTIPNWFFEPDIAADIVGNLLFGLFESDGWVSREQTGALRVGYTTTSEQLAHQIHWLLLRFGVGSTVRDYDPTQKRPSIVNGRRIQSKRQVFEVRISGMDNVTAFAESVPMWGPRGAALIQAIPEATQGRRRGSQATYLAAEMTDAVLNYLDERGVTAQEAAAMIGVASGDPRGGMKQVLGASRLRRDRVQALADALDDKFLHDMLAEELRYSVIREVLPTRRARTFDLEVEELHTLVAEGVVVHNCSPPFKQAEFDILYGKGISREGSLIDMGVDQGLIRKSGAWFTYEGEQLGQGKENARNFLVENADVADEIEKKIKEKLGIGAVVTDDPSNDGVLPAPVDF

[8] = target: T4, Rac GTPase-activating protein 1 (Homo sapiens, UniProt Q9H0H5); test: blockers of MgcRacGAP-driven Rac1 GTP hydrolysis – biochemical, ADP Hunter fluorescence, primary and confirmatory, confirmation (AID 624330); format: functional
T4 sequence (Q9H0H5 whole entry): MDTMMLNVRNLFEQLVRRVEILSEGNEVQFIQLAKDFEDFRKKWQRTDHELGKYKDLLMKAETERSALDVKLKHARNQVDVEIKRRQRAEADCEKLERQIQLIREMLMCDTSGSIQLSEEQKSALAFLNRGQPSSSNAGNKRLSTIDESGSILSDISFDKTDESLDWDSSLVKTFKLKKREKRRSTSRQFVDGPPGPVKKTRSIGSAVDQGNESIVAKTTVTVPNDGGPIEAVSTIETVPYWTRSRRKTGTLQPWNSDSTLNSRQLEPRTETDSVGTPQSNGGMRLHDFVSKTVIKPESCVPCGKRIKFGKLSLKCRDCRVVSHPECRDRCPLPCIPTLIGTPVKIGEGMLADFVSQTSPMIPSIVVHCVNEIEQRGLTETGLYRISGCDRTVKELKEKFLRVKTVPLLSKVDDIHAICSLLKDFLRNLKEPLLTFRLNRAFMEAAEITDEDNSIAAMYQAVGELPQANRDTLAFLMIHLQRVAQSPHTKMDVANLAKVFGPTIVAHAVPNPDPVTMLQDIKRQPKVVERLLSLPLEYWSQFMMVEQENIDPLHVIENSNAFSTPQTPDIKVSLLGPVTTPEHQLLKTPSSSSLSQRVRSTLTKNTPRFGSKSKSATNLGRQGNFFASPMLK

[9] = blockers of bursicon-stimulated LGR2 cAMP reporter – cell-based, HEK293, CRE-luciferase reporter, cherry pick, set 2, dose response (AID 743343); format: functional;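 further: transfected cells were stimulated with diluted bursicon conditioned medium after compound addition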
[10] = blockade of melanocortin 4 receptor signaling – cell-based, plate reader, cherry pick, counter-screen for LGR2 antagonist project, dose response (AID 743444); format: functional;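 further: transfected HEK 293 cells stimulated with alpha-MSH peptide; potency of inhibitors of the alpha-MSH evoked signal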
[11] = luciferase reporter signal suppression in cells – H4 neuroglioma cells, luminescence, dose response (AID 1990); format: functional, cell-based
[12] = Luminescence Cell-Based Dose Response HTS to Identify Inhibitors of 5'UTR Stem-Loop Driven Prion Protein mRNA Translation in H4 Neuroglioblastoma Cells. [Related pubchem assays: 1827 (Project Summary), 1813 (Primary HTS)]; format: functional
[13] = alpha-synuclein stem-loop luciferase translation blockers – H4 neuroglioma cells, luminescence, confirmation (AID 1988); format: functional, cell-based
[14] = Trypanosoma cruzi growth suppression in host cells – NIH3T3 host cells, beta-gal luminescence, confirmation (AID 2044); format: functional, cell-based;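 further: intracellular parasites grown in NIH/3T3 mouse fibroblasts as host cells; luminescent beta-galactosidase reporter signal from transgenic T. cruzi replicating inside host cells; inhibitors lower the luminescence signal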
[15] = NIH3T3 cell viability loss – ATP luminescence, mouse fibroblasts, counter-screen, dose response (AID 2010); format: functional, cell-based;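 further: cells exposed to compound for about 90 hours before reading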
[16] = target: T5, Short transient receptor potential channel 4 (Mus musculus, UniProt Q9QUQ5); test: block of DAMGO-driven TRPC4 calcium entry – cell-based, HEK293 TRPC4/mu-opioid, Fluo-4 calcium, dose response (AID 434942); format: functional;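 further: potency of inhibitors blocking the TRPC4 calcium response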
T5 sequence (Q9QUQ5 whole entry): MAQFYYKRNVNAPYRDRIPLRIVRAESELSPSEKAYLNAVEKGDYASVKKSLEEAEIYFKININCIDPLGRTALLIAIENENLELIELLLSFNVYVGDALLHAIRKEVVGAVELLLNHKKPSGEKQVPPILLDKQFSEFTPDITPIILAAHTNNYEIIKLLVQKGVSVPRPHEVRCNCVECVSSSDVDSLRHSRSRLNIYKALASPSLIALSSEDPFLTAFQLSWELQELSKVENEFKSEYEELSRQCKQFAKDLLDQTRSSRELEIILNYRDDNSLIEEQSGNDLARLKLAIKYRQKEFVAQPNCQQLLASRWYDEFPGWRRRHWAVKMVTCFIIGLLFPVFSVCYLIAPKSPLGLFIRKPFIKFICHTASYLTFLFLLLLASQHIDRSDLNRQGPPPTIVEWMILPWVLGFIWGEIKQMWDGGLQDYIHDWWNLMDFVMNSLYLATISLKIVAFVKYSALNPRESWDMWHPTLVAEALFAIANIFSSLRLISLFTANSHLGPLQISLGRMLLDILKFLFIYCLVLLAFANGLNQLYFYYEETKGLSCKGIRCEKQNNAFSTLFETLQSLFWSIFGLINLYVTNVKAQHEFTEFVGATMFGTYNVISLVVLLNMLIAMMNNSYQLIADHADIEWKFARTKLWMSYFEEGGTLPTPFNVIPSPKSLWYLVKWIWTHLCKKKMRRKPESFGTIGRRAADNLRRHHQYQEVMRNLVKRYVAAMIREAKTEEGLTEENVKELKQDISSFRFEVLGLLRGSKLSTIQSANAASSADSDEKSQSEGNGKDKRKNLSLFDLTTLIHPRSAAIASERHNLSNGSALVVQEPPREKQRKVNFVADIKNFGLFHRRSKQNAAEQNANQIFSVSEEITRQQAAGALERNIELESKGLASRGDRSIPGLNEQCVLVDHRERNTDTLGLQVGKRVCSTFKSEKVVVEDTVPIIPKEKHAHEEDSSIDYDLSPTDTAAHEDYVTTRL

[17] = reduction of Shn3 3'UTR-driven luciferase in osteoblasts – cell-based, Clone20 osteoblasts, firefly luciferase, cherry-picked, dose response (AID 624132); format: functional;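 further: firefly luciferase luminescence from reporter carrying the Shn3 3'UTR in osteoblasts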
[18] = loss of viability in HepG2 cells – cell-based, CellTiter-Glo, cherry-picked, cytotoxicity control for Shn3 inhibitor project, dose response (AID 624134); format: functional
[19] = non-specific 3'UTR reporter inhibition in Clone20-Shn3RL – cell-based, Renilla luciferase, cherry-picked, counter-screen for Shn3 inhibitor project, dose response (AID 624133); format: functional
[20] = target: FAD-linked sulfhydryl oxidase ALR (Homo sapiens, UniProt P55789); test: ALR-catalysed DTT oxidation blockers – biochemical, H2O2 detection, luminescence, cherry-pick, dose response (AID 493248)
Sequence of FAD-linked sulfhydryl oxidase ALR (P55789 whole entry): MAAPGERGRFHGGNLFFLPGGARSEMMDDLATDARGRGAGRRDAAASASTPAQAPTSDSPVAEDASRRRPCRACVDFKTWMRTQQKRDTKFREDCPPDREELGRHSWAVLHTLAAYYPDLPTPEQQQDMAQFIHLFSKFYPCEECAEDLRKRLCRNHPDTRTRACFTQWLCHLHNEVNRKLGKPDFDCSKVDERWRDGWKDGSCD

C/C(=N\NC(=O)c1cc(O)ccc1O)c1cccc(NC(=O)c2cccc(Cl)c2)c1
AC50 [1]: 1.18 µM (active)

O=Cc1ccc(N2CCCCCC2)cc1
EC50 [2]: > 50 µM (active)

Clc1ccc(CN2CCN(/N=C/c3ccco3)CC2)cc1
EC50 [2]: > 50 µM (active)

Cc1ccc(C(=O)c2cn(-c3ccc(F)c(Cl)c3)nn2)cc1
AC50 [3]: inconclusive

CCOC(=O)N1CCN(C(=O)CNCc2cccs2)CC1.O=C(O)C(=O)O
AC50 [3]: inconclusive

CC(Oc1ccc(F)cc1)C(=O)Nc1cccc(-c2nn[nH]n2)c1 (stereo unspecified)
AC50 [1]: 32.6 µM (active)

O=C(/C=C\c1ccc(O)c(O)c1)O[C@@H]1C[C@](O)(C(=O)O)C[C@@H](O)[C@@H]1O
AC50 [3]: inconclusive

COc1cc(C(=O)N/N=C/c2ccc(OC(=O)c3cccc(C)c3)c(OC)c2)ccc1O
EC50 [2]: > 50 µM (active)
IC50 [4]: > 79 µM (inactive)

NC(=O)CN1N=C(c2cc(Cl)sc2Cl)CSC1=O
EC50 [2]: > 50 µM (active)

Oc1cc(-c2ccc(Br)cc2)[nH]n1
IC50 [5]: 53.9 µM (active)
AC50 [6]: 3.06 µM (active)
EC50 [7]: 0.718 µM (active)

Nc1[nH]cnc2nc(SCC(=O)Nc3cccc(C(F)(F)F)c3)nc1-2
EC50 [2]: > 50 µM (active)

CC[C@H](CO)NCCN[C@@H](CC)CO
AC50 [3]: inconclusive

CN(C)c1ccc(NC(S)=NCC2CCCO2)cc1 (stereo unspecified)
IC50 [5]: 14.3 µM (active)
IC50 [8]: 85.6 µM (active)

c1nc(CCO[C@H]2CCCCO2)cc2cc3c(cc12)OCO3
AC50 [9]: 2.56 µM (active)
AC50 [10]: 3.45 µM (active)

CCN(CC)c1ccc(NC(=O)COC(=O)COc2ccccc2[N+](=O)[O-])cc1
IC50 [5]: 10.4 µM (active)

CCOc1cc(CNCCCN2CCOCC2)cc(Br)c1OCc1ccccc1Cl
EC50 [11]: > 120 µM (not active)
EC50 [12]: > 120 µM (not active)
EC50 [13]: > 120 µM (not active)
EC50 [14]: 539 nM (active)
EC50 [15]: 12 µM (active)
EC50 [16]: 4.22 µM (active)
AC50 [17]: 9.31 µM (active)
AC50 [18]: 11 µM (active)
AC50 [19]: 19.3 µM (active)

CC1CC(C)CN(S(=O)(=O)c2cccc3cccnc23)C1 (stereo unspecified)
EC50 [2]: > 50 µM (active)
AC50 [20]: 17.4 µM (active)

CCOC(=O)c1nc2cc3n(c(CC(C)C)c-2c1C)CC(C)=C3C
EC50 [2]: > 50 µM (active)

COc1ccc(/C=C(/C#N)C(=O)Nc2ccc(O)cc2)cc1C(=O)O
IC50 [5]: 36.9 µM (active)
AC50 [6]: 32.1 µM (active)
EC50 [7]: 8.43 µM (active)

COc1ccc2c(C(=O)CN(C)C3CCCCC3)c[nH]c2c1
EC50 [2]: > 50 µM (active)
